Experimental data reported in paper PMC8878928 (International Journal of Molecular Sciences, 2022).

Experiments:
[1] = test system: SARS-CoV-2; parameters: method as in PMID 32198291; conditions: Calu-3 cell line; read-out: EC50 (viral RNA copies); cited from earlier work
[2] = test system: 3CL^Pro; conditions: read-out: IC50 against 3CL^Pro; lead compound; cited from earlier work
[3] = test system: SARS-CoV-2; conditions: co-administration of PF07321332 and Ritonavir, oral, phase II/III trials; cited from earlier work
[4] = molecular target: SARS-CoV-2 3CL^Pro (Severe acute respiratory syndrome coronavirus 2, UniProt P0DTD1); test: FRET-based 3CLPro enzymatic inhibition assay (SARS-CoV-2); assay type: biochemical; conditions: 0.2 μM enzyme, mean ± SE, n = 3
[5] = molecular target: SARS-CoV 3CL^Pro (Severe acute respiratory syndrome coronavirus, UniProt P0C6X7); test: biochemical
[6] = test system: SARS-CoV-2; test: SARS-CoV-2 infection assay in Vero E6 cells, viral RNA by qPCR; assay type: cell-based; conditions: final concentration 10 μM, initial screen

Row | Compound | EC50 [1] | IC50 [2] | Reduction of overall hospitalizations [3] | IC50 [4] | IC50 [5] | Reduction of RNA loads of SARS-CoV-2 (relative level to DMSO control) [6]
1 | CC(C)(C)OC(=O)Nc1cccn([C@@H](CC2CC2)C(=O)N[C@@H](C[C@@H]2CCNC2=O)C(=O)C(=O)NCc2ccccc2)c1=O [13b] | 4000 to 5000 nM | 670 ± 180 nM |  |  |  | 
2 | CC(C)(C)[C@H](NC(=O)C(F)(F)F)C(=O)N1C[C@H]2[C@@H]([C@H]1C(=O)N[C@H](C#N)C[C@@H]1CCNC1=O)C2(C)C [PF-07321332] |  |  | 89% |  |  | 
3 | CC(C)C[C@H](NC(=O)[C@@H](NC(=O)C1CCCCC1)C(C)C)C(=O)N[C@H](C=O)C[C@@H]1CCCNC1=O [TPM1] |  |  |  | 241 ± 0.5 nM | 479 ± 29 nM | 
4 | CC(C)C[C@H](NC(=O)[C@@H](NC(=O)c1ccco1)C(C)C)C(=O)N[C@H](C=O)C[C@@H]1CCCNC1=O [TPM5] |  |  |  | 59 ± 2 nM | 134 ± 1 nM | 
5 | COc1ccc(/C=C/C(=O)N[C@H](C(=O)N[C@@H](CC(C)C)C(=O)N[C@H](C=O)C[C@@H]2CCCNC2=O)C(C)C)cc1 [TPM10] |  |  |  | 80 ± 2 nM | 231 ± 4 nM | 
6 | CC(C)C[C@H](NC(=O)[C@H](Cc1ccccc1)NC(=O)/C=C/c1ccccc1)C(=O)N[C@H](C=O)C[C@@H]1CCCNC1=O [TPM16] |  |  |  | 166 ± 2 nM | 232 ± 1 nM | 10^3
7 | CC[C@H](C)[C@H](NC(=O)/C=C/c1ccccc1)C(=O)N[C@H](C=O)C[C@@H]1CCCNC1=O [TPM19] |  |  |  | 1060 ± 31 nM | 1220 ± 312 nM | 10^3
